≈ marks a conversion by molar mass, not a printed value.

This is an account of results in EPA's ToxValDB 9.5 (doi:10.2903/j.efsa.2008.126r).

One series deals with Anas platyrhynchos. To be noted: for LD50: oral, mortality.
The test system of a further series is Daphnia magna. Conditions: chronic/long-term; duration: 21 days; reproduction.
For another series, the system named is Apis mellifera. To be noted: acute; duration: 48 hours; dermal; mortality.
The subject of the next series is Colinus virginianus. To be noted: for LD50: acute, oral, mortality.
A further series relates to Canidae. Conditions: subchronic; duration: 90 days; oral; Dog Other; histopathology: nonneoplastic.

On to `CC(C)Oc1cccc(NC(=O)c2ccccc2C(F)(F)F)c1` [Flutolanil], for which the LD50 was more than 2000 mg/kg-day in the series with Anas platyrhynchos (acute, unspecified); 1250 mg/kg-day in the series on Anas platyrhynchos (short-term, feed); more than 200 µg/piece in the series on Apis mellifera; more than 961 mg/kg-day in the series on Colinus virginianus (diet); more than 2000 mg/kg-day in the series on Colinus virginianus; more than 10000 mg/kg-day with Rattus norvegicus (acute, oral, mortality). The NOEL in the series on Anas platyrhynchos (reproductive) was found to be 267 mg/kg-day; in the series on Colinus virginianus (reproduction developmental) it was 247 mg/kg-day. The NOEC worked out at 0.53 mg/L in the series with Daphnia magna; 12.9 mg/kg with Tagia sp. (chronic/long-term, duration: 56 days); 0.233 mg/L in the series on Pimephales promelas (chronic/long-term, duration: 30 days, growth). For the same compound, the LC50 in the series on Tagia sp. (acute, duration: 14 days, mortality) was more than 1000 mg/kg; with Pimephales promelas (acute, duration: 96 hours, mortality) it was 4.8 mg/L (≈ 14.8 µM). Further, the NOAEL in the series with Rattus norvegicus (chronic, duration: 2 years, F, hematological) was determined as 8.7 mg/kg-day; in the series with Rattus norvegicus (chronic, duration: 2 years, M, histopathology: nonneoplastic) it was 8.7 mg/kg-day; in the series with Rattus norvegicus (reproduction developmental, organ weight) it was 157 mg/kg-day; in the series on Canidae, 80 mg/kg-day.

As a reminder, the NOAEL is the highest tested level that showed no adverse finding.
